Results: PMC5268738, “A sequential multi-target Mps1 phosphorylation cascade promotes spindle checkpoint signaling” (eLife, 2017)
Square brackets hold non-standard residues; d marks the D form. Ends that are not written are not given here. Peptide text beside a SMILES is read from it. pT = C[C@@H](OP(=O)(O)O)[C@H](N)C(=O)O; pS = N[C@@H](COP(=O)(O)O)C(=O)O

Assays:
APC/C^Cdc20 = APC/C^Cdc20 inhibition by MCC components (securin ubiquitination assay); assay type: biochemical, Xenopus APC/C, human Cdc20; details: BubR1^N and Cdc20^ΔN60, no Bub1^ΔK–Bub3, Mad1^E–Mad2, Cdk1 or Mps1
human Mad1 CTD = experiment: in vitro pull-down of human Mad1^CTD by Bub1 peptide beads; assay type: binding; details: peptides immobilized on SulfoLink resin, Coomassie
Protocol: Recombinant bait proteins or bacteria lysates containing bait proteins were incubated with the appropriate affinity beads. Bait-bound beads were then blocked with 2% fat-free milk when necessary before being mixed with 100 µl diluted prey proteins. After incubation, beads were washed and eluted with the SDS loading buffer. The bead-bound proteins were analyzed by Coomassie blue staining or Western blotting. […] In cases that synthesized peptides were used as bait, peptides were immobilized on SulfoLink resin (Thermo Scientific, Waltham, MA) according to the manufacturer’s instructions. The synthetic scBub1 peptides contained residues 449–473 of scBub1, various phospho-residues, and a cysteine at the N-terminus. All synthetic human Bub1 peptides, except the pS459 peptide, contained residue 455–477 of human Bub1, the appropriate phospho-residues, and a cysteine at the N-terminus. The Bub1 pS459 peptide contained residues 439–480, pT452/pS459, and a cysteine at the C-terminus.

HeLa cells = experiment: mitotic arrest by Mis12–Mad1 fusion proteins (mitotic index); assay type: cell-based, human; details: no spindle poison
Protocol: Internal deletion mutants were constructed with overlapping extension polymerase chain reaction (PCR). Point mutations were introduced with QuikChange Lightening Site-Directed Mutagenesis kit (Agilent Technologies, Santa Clara, CA). All plasmids were verified by sequencing. Plasmid transfection was performed with the Effectene reagent (Qiagen, German Town, MD) according to the manufacturer’s instructions.
[…] For Plk1 inhibition, BI 2536 was added 1 hr prior to harvest. Collected cells were washed with PBS and fixed with pre-chilled 70% ethanol at −20°C overnight. After being washed with PBS, the fixed cells were permeabilized with 0.2% Triton X-100 in PBS for 20 min. Cells were then incubated with the anti-MPM2 antibody (1:100, Millipore) in PBS containing 1% BSA for 2 hr. After being washed with PBS, cells were incubated with fluorescent secondary antibodies (Invitrogen) in PBS containing 1% BSA for 30 min. After being washed with PBS, cells were stained with 20 μg/ml propidium iodide (Sigma) in PBS containing 200 μg/ml RNase (Qiagen). All staining steps were performed at room temperature. The samples were analyzed on a FACSCalibur flow cytometer (BD Biosciences). Data were processed with the FlowJo software. The mitotic index was defined as the percentage of cells that had 4N DNA content and were also positive for MPM2 staining. […]

[1] = target: T1, C-terminal domain (CTD) of scMad1 (Saccharomyces cerevisiae, UniProt P40957); experiment: ITC, scBub1 fragment or phospho-peptides with scMad1 CTD; assay type: binding; details: 20°C, 25 mM HEPES pH 7.5, 150 mM NaCl, scMad1 20 µM in cell, scBub1 phospho-peptide or fragment 300 µM injected, read-out: Kd, dissociation constant
T1 sequence (P40957 633-749 limits assumed): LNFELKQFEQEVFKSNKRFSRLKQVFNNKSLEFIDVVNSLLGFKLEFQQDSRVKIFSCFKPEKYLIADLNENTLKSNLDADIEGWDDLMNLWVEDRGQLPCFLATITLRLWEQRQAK
Protocol: All isothermal titration calorimetry (ITC) assays were performed with a MicroCal Omega ITC200 titration calorimeter (GE Life Sciences) at 20°C. Recombinant scMad1^CTD protein or scMad1–scMad2 complexes were dialyzed into the HEPES Buffer I (25 mM HEPES, pH 7.5, 150 mM NaCl). Recombinant human Mad1^CTD protein was dialyzed into the HEPES Buffer II (25 mM HEPES, pH 7.5, 50 mM NaCl). For each titration, 300 μl of scMad1 proteins (20 µM) or human Mad1 (50 µM) were added to the calorimeter cell. The scBub1 phospho-peptides or purified scMps1-phosphorylated scBub1_449–530 fragment (300 µM) in the HEPES Buffer I or the human Bub1 phospho-peptides (500 µM) in the HEPES Buffer II were injected with an injection syringe in 19 2-μl portions. The raw data were processed and fitted with the NITPIC software package ([Keller et al., 2012]).

HeLa Tet-On cells = experiment: mitotic index by flow cytometry, Bub1-depleted cells; assay type: cell-based, human; details: partial Bub1 depletion, BI 2536 1 µM, nocodazole; n = 3; as shown previously (Jia et al., 2016)
Protocol: HeLa Tet-On cells were initially purchased from Clontech (Mountain View, CA), and were cultured in Dulbecco’s Modified Eagle Medium (DMEM, Invitrogen, Carlsbad, CA) supplemented with 10% fetal bovine serum and 2 mM L-glutamine. The cells were authenticated by genome sequencing and metaphase chromosome spread, and were routinely checked by 4',6-diamidino-2-phenylindole (DAPI) staining to ascertain that they were free of mycoplasma contamination. For G1/S synchronization, cells were treated with 2 mM thymidine (Sigma, St. Louis, MO) for 14–16 hr. For mitotic arrest, cells were treated with 330 nM or 1 µM nocodazole (Sigma) or 100 nM taxol (Sigma) for 12–14 hr. Other chemicals used in this study were: RO3306 (Sigma) at 20 µM, BI 2536 (Selleck Chemicals, Houston, TX) at 1 µM, MG132 (Selleck Chemicals) at 10 µM, okadaic acid (LC lab, Woburn, MA) at 500 nM, and reversine (Cayman Chemical, Ann Arbor, MI) at 1 µM.
For RNAi experiments, cells were transfected with siRNA oligonucleotides (Dharmacon, Lafayette, CO) using Lipofectamine RNAiMAX (Invitrogen) and harvested at 24–72 hr after transfection. The sequences of the siRNAs were (from 5’ to 3’): siBub1-c, […] […]
Cells were synchronized at G1/S with thymidine and released into fresh medium containing 330 nM nocodazole for 13 hr before being harvested. […] The samples were analyzed on a FACSCalibur flow cytometer (BD Biosciences). […]

Bub1^ΔK–Bub3 = experiment: in vitro kinase assay on recombinant Bub1^ΔK–Bub3; assay type: biochemical, human; details: 400 nM Bub1^ΔK–Bub3, 50 nM Cdk1–Cyclin B1 or 500 nM Mps1, 1 mM ATP, room temperature, 30 min; blot
Protocol: For kinase assays, 1 μM Cdc20^ΔN60, 40 μM Mad1^E–Mad2, or 400 nM Bub1^ΔK–Bub3 was incubated with 40 nM Bub1, 500 nM Mps1, and/or 50 nM Cdk1–Cyclin B1 at room temperature for 30 min in the kinase buffer (25 mM Tris-HCl, pH 7.7, 100 mM NaCl, 10 mM MgCl2, 5 mM NaF, 20 mM β-glycerophosphate, 0.1 mM Na3VO4 and 1 mM DTT) supplemented with 1 mM ATP. The reaction mixtures were stopped with the appropriate kinase inhibitors for further protein-binding assays, or quenched with the SDS loading buffer and analyzed by Coomassie blue staining or Western blotting.

For “Mad2^Di: dimeric Mad2 separated by ion exchange chromatography”, the “spontaneous functional MCC formation and APC/C^Cdc20 inhibition (in words)” value (APC/C^Cdc20) was “allowed the spontaneous formation of functional MCC that inhibited securin ubiquitination by APC/C^Cdc20”.

In the case of “pS459-pT461-pT464 peptide: triply phosphorylated synthetic human Bub1 peptide, residues 455–477, N-terminal cysteine (CKVQP[pS]P[pT]VH[pT]KEALGFIMNMFQA; UniProt O43683 455-477, looked up, fragment)”, the “binding to human Mad1 CTD (in words)” value (human Mad1 CTD) is reported as “bound more weakly to Mad1 than the pS459-pT461 peptide”.

In the case of T716A: Mis12–Mad1 with T716A mutation, the “mitotic arrest by Mis12–Mad1 fusion protein (in words)” value (HeLa cells) is reported as “abrogated the function of Mis12–Mad1 more strongly than simultaneously mutating the 13 sites outside of the CTD”.

`CC[C@H](C)[C@H](NC(=O)[C@H](C)NC(=O)[C@H](CC(=O)O)NC(=O)[C@H](CCCCN)NC(=O)[C@H](CO)NC(=O)[C@H](Cc1ccccc1)NC(=O)[C@H](C)NC(=O)[C@@H](NC(=O)[C@@H](NC(=O)[C@@H](NC(=O)[C@@H]1CCCN1C(=O)[C@H](CO)NC(=O)[C@H](CCCNC(=N)N)NC(=O)[C@H](CO)NC(=O)[C@@H](N)CS)[C@@H](C)OP(=O)(O)O)C(C)C)[C@@H](C)OP(=O)(O)O)C(=O)N[C@@H](CC(N)=O)C(=O)N[C@@H](CCC(=O)O)C(=O)N[C@H](C(=O)N[C@@H](Cc1ccccc1)C(=O)N[C@@H](CO)C(=O)N[C@@H](CCSC)C(=O)N[C@@H](Cc1ccccc1)C(=O)N[C@@H](CC(N)=O)C(=O)N[C@@H](CCC(N)=O)C(=O)N[C@@H](Cc1c[nH]cn1)C(=O)N[C@@H](Cc1ccc(O)cc1)C(=O)O)C(C)C` [scBub1 pT453-pT455 peptide] (H-CSRSP[pT]V[pT]AFSKDAINEVFSMFNQHY-OH) showed a Kd [1] of 1600 nM.

In the case of `CC[C@@H]1C(=O)N(C)c2cnc(Nc3ccc(C(=O)NC4CCN(C)CC4)cc3OC)nc2N1C1CCCC1` [BI 2536, reference compound], the “effect of Plk1 inhibition with partial depletion of Bub1 on the spindle checkpoint (in words)” value (HeLa Tet-On cells) is reported as “synergistically inactivated the spindle checkpoint and reduced nocodazole-triggered mitotic arrest”.

With “Mad2^Mono: monomeric Mad2, mostly the inactive O-Mad2” the “spontaneous functional MCC formation and APC/C^Cdc20 inhibition (in words)” value (APC/C^Cdc20) was “only showed weak APC/C^Cdc20 inhibition at very high doses”.

`CC[C@H](C)[C@H](NC(=O)[C@H](C)NC(=O)[C@H](CC(=O)O)NC(=O)[C@H](CCCCN)NC(=O)[C@H](CO)NC(=O)[C@H](Cc1ccccc1)NC(=O)[C@H](C)NC(=O)[C@@H](NC(=O)[C@@H](NC(=O)[C@@H](NC(=O)[C@@H]1CCCN1C(=O)[C@H](CO)NC(=O)[C@H](CCCNC(=N)N)NC(=O)[C@H](CO)NC(=O)[C@@H](N)CS)[C@@H](C)O)C(C)C)[C@@H](C)OP(=O)(O)O)C(=O)N[C@@H](CC(N)=O)C(=O)N[C@@H](CCC(=O)O)C(=O)N[C@H](C(=O)N[C@@H](Cc1ccccc1)C(=O)N[C@@H](CO)C(=O)N[C@@H](CCSC)C(=O)N[C@@H](Cc1ccccc1)C(=O)N[C@@H](CC(N)=O)C(=O)N[C@@H](CCC(N)=O)C(=O)N[C@@H](Cc1c[nH]cn1)C(=O)N[C@@H](Cc1ccc(O)cc1)C(=O)O)C(C)C` [scBub1 pT455 peptide] (H-CSRSPTV[pT]AFSKDAINEVFSMFNQHY-OH) was tested, and the Kd [1] was 1600 nM.

For “Cdk1: recombinant GST-Cdk1 (T14A/Y15F) co-expressed with His6-Cyclin B1 [reference compound]”, the “phosphorylation of Bub1^ΔK–Bub3 at S459 (in words)” value (Bub1^ΔK–Bub3) was “strongly phosphorylated at S459”.
